Like-named read-outs stand apart in the source and are kept apart here.
Key:
MycspAAO [1] = experiment: initial rates from HMF concentration over time, Lineweaver-Burk; type: biochemical, Mycobacterium sp. MS1601; conditions: 0.1-80 mM HMF, 10 µg/ml enzyme, 100 mM sodium phosphate pH 8, 30 °C
MycspAAO [2] = conditions: 0.1-80 mM HMF, 10 µg/ml enzyme, 100 mM sodium phosphate pH 8, 30 °C

## O=Cc1ccc(CO)o1 [5-hydroxymethylfurfural]
MycspAAO [1]
  Km: 3300 ± 300 µM
MycspAAO [2]
  Km: 1900 ± 5 µM

Source: paper PMC9328741 (Microbial Biotechnology, 2022)
